Results published in patent publication US20080261984A1, “Use of S,S-Reboxetine in the Treatment of Pain” (Pfizer Inc., priority 2004, published 2008).

Columns and labels:
[1] = system: anticholinergic binding; settings: different animal models; cited from earlier work
[2] = system: monoamine oxidase (MAO); settings: cited from earlier work
[3] = in vivo; cited from earlier work
[4] = treatment of pain in patients who do not respond to alpha-2-delta ligands such as gabapentin (PHN study); settings: human, in vivo
Protocol: The following study is carried out to assess the efficacy of (S,S)-reboxetine in the treatment of patients with post-herpetic neuralgia (PHN) who fail to respond to gabapentin (GBP) treatment.
Study Population Male or female patients aged 18 years or older, with pain present more than 3 months after healing of the Herpes Zoster skin rash and who are also GBP treatment failures. No upper limit on the duration of PHN is imposed. GBP failures are defined as either: […]
Those patients who show no or minimal improvement on the Patient Global Impression of Change (PGIC) after treatment with GBP (1800 mg/day) administered for a period of […]
Those who are unable to tolerate doses of GBP less than or equal to 1800 mg/day.
Study Design Randomized, double-blind, placebo-controlled, 2-treatment (placebo and active), age-stratified study in patients aged 18 years or older, who suffer from PHN. The study is comprised of 3 phases: (i) 7-weeks screening including 4-weeks GBP treatment, (ii) 5-weeks randomized treatment, and (iii) 1-week follow-up period.
All patients who meet entry criteria initially enter a 1-week run-in period during which a daily pain diary will be maintained. Thereafter, if the severity of pain meets relevant criteria for inclusion in the study, patients enter a 4-week period during which they will receive GBP treatment. […]

[5] = molecular target: dopamine reuptake (Homo sapiens, UniProt Q01959); settings: cited from earlier work
dopamine reuptake, sequence (Q01959 whole entry): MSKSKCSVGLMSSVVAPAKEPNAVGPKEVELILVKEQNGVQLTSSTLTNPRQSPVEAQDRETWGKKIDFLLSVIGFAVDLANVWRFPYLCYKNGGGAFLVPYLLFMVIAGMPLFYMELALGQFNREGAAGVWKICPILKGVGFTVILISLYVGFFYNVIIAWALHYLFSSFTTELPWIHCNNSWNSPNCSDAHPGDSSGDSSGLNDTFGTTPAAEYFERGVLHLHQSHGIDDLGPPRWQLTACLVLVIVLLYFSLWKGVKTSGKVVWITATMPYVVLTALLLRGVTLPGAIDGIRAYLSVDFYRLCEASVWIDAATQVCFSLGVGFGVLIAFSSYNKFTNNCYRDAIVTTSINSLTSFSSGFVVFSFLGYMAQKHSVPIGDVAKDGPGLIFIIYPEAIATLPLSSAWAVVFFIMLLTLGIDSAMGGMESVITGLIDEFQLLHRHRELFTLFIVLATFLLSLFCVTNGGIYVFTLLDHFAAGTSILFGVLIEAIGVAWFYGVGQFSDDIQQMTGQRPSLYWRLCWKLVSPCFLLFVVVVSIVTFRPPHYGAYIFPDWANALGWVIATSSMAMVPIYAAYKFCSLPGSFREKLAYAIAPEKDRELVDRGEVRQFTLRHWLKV

[6] = patients receiving gabapentin; cited from earlier work
[7] = in vivo; cited from earlier work; remark: listed apart in the source
[8] = molecular target: norepinephrine reuptake (Homo sapiens, UniProt P23975); settings: cited from earlier work
norepinephrine reuptake, sequence (P23975 whole entry): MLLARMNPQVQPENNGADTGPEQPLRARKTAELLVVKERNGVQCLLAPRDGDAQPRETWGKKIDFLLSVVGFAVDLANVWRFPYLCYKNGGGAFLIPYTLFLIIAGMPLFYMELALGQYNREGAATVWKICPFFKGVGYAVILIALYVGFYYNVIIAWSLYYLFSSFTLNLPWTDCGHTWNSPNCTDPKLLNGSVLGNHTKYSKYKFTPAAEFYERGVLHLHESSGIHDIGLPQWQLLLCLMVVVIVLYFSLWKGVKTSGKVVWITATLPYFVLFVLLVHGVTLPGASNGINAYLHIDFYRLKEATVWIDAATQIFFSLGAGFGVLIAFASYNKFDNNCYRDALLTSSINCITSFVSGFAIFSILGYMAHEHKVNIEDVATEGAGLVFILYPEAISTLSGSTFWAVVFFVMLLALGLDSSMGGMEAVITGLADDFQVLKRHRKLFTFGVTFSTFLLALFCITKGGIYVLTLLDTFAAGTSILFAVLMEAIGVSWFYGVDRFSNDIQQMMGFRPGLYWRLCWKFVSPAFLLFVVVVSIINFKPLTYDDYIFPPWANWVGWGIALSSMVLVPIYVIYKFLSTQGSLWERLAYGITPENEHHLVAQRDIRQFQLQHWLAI

In the case of `CCOc1ccccc1OC(c1ccccc1)C1CNCCO1` (racemic) [reboxetine, (RR, SS)-2-[α-(2-ethoxyphenoxy)benzyl]morpholine], the anticholinergic binding activity [1] is given as “no anticholinergic binding activity”, the “monoamine oxidase (MAO) inhibitory activity” value [2] is given as “substantially devoid” and the “effect in the 8-OH-DPAT hypothermia test” value [3] is given as “ineffective”.
In the case of `CCOc1ccccc1O[C@@H](c1ccccc1)[C@@H]1CNCCO1` [(S,S)-reboxetine], the “efficacy in treating pain in patients who do not respond to alpha-2-delta ligands” value [4] is listed as “efficacious” and the “dopamine reuptake inhibitory activity” value [5] is listed as “no”.
In the case of `NCC1(CC(=O)O)CCCCC1` [gabapentin, 1-(aminomethyl)-cyclohexylacetic acid], the “patients noting at least a moderate improvement (score of 1 or 2) on the Patient Global Impression of Change” value [6] is given as “Approximately 60%” and the “efficacy in the treatment of painful diabetic neuropathy” value [7] is given as “efficacious”.
In the case of `COc1ccc(C(CN(C)C)C2(O)CCCCC2)cc1` (stereo not drawn) [venlafaxine], the “norepinephrine reuptake inhibitory activity” value [8] is given as “potent inhibitor” and the “dopamine reuptake inhibitory activity” value [5] is given as “weak inhibitor”.
